The values that follow come from ChEMBL document CHEMBL1177803, “In vitro antituberculosis activities of the constituents isolated from Haloxylon salicornicum” (2010).

Converted amounts (≈) assume the structure as drawn. The source made the active and inactive calls.

The test system of experiment [1] is Mycobacterium tuberculosis. The experiment is described as follows: Antituberculosis activity against Mycobacterium tuberculosis H37Rv ATCC 27294 after 2 weeks by microbroth dilution method. The experiment is classed as functional. Conditions: H37Rv ATCC 27294, 336 h. (In broth dilution the organism is exposed to a series of concentrations in liquid medium.)
For experiment [2], the system named is Mycobacterium tuberculosis. The experiment is described as follows: Antituberculosis activity against Mycobacterium tuberculosis H37Rv ATCC 27294 in stationary phase culture at pH 5.8 up to 200 ug/ml after 3 days followed by washout from day 4 to week 4 by microbroth dilution method. The class given is functional, organism-based.

In the case of `CCCCC(O)CCCCCCCCCCCCCCCCCCCC(=O)CCC` (configuration not stated), the MIC in experiment [1] was found to be 100 µg/mL (≈ 235 µM). Further, in experiment [2], the outcome was inactive.
Molecule `CC1(C)CC[C@]2(C)CC[C@]3(C)C(=CC[C@@H]4[C@@]5(C)CC[C@H](O)C(C)(C)[C@@H]5CC[C@]43C)[C@@H]2C1` [beta-AMYRIN] returned an MIC in experiment [1] of 100 µg/mL (≈ 234 µM). For the same molecule, in experiment [2], the outcome was inactive.
Taken in the same sequence, the figures for `O=C(/C=C\C=C/CCCCCCCCCCCCCCCCCO)N1CCC[C@@H](O)C1` [HALOXYLINE B] were 50 µg/mL (≈ 115 µM) and “inactive”.
The like results for `CCC(CC[C@@H](C)[C@H]1CC[C@H]2[C@@H]3CC=C4C=CCC[C@]4(C)[C@H]3CC[C@]12C)C(C)C` (some centres not stated) were, in that order, 100 µg/mL (≈ 252 µM) and “inactive”.
`NNC(=O)c1ccncc1` [ISONIAZID]: in experiment [1], the MIC is 0.02 µg/mL (≈ 0.146 µM). For the same molecule, the outcome in experiment [2] was inactive.
`CC(C)[C@@H](C)/C=C/[C@@H](C)[C@H]1CC[C@@H]2[C@]1(C)CC[C@H]1[C@]23C=C[C@]2(C[C@@H](O)CC[C@]12C)OO3` [ERGOSTEROL PEROXIDE] had an MIC in experiment [1] of 100 µg/mL (≈ 233 µM). Besides, in experiment [2], the outcome was inactive.
The like results for `CC(C)[C@@H](C)/C=C/[C@@H](C)[C@H]1CC[C@@H]2[C@]1(C)CC=C1[C@]23C=C[C@]2(C[C@@H](O)CC[C@]12C)OO3` were, in that order, 100 µg/mL (≈ 234 µM) and “inactive”.
In turn, `CC[C@H](/C=C/[C@@H](C)[C@H]1CC[C@H]2[C@@H]3CC=C4C[C@@H](O)CC[C@]4(C)[C@H]3CC[C@]12C)C(C)C` [STIGMASTEROL] came in with an MIC in experiment [1] of 100 µg/mL (≈ 242 µM). In addition, in experiment [2], the result was inactive.
The like results for `C[C@H]1[C@H](C)CC[C@]2(C)CC[C@]3(C)C(=CC[C@@H]4[C@@]5(C)CCC[C@H](C)[C@@H]5CC[C@]43C)[C@H]12` were, in that order, 100 µg/mL (≈ 252 µM) and “inactive”.
`CC[C@H](/C=C/[C@@H](C)[C@H]1CC[C@H]2[C@@H]3CCC4=C[C@@H](O[C@@H]5O[C@@H](C)[C@H](O)[C@@H](O)[C@H]5O)CC[C@]4(C)[C@H]3CC[C@]12C)C(C)C` came in with an MIC in experiment [1] of 50 µg/mL (≈ 89.5 µM). In experiment [2], the outcome was inactive.
The like results for `CC(=O)O[C@H]1CC[C@]2(C)[C@H]3CC=C4[C@@H]5CC(C)(C)CC[C@]5(C)CC[C@@]4(C)[C@]3(C)CC[C@H]2C1(C)C` [beta-AMYRIN ACETATE] were, in that order, 100 µg/mL and “inactive”.
Taken in the same sequence, the figures for `OCCCCCCCCCCCCCCCCCCCCCCC1CCCCC1` were 100 µg/mL (≈ 245 µM) and “inactive”.
Take `CC[C@H](/C=C/[C@@H](C)[C@H]1CC[C@H]2[C@@H]3CC=C4C[C@@H](O[C@@H]5O[C@H](CO)[C@@H](O)[C@H](O)[C@H]5O)CC[C@]4(C)[C@H]3CC[C@]12C)C(C)C` [STIGMASTEROL GLUCOSIDE]: inhibition of growth in experiment [1] (MIC) required 50 µg/mL (≈ 87 µM). Also, the result in experiment [2] was inactive.
In experiment [1], `C=C(C)[C@@H]1CC[C@]2(C)CC[C@]3(C)[C@H](CC[C@@H]4[C@@]5(C)CC[C@H](O)C(C)(C)[C@@H]5CC[C@]43C)[C@@H]12` [LUPEOL] had an MIC of 100 µg/mL (≈ 234 µM). Further, the outcome in experiment [2] was inactive.
The like results for `O=C(/C=C\C=C/CCCCCCCCCCCCCCCCCO)N1CCCCC1` [HALOXYLINE A] were, in that order, 100 µg/mL (≈ 238 µM) and “inactive”.
Taken in the same sequence, the figures for `OCCCCCCCCCCCCCCCCCCCCC1CCCCC1` were 100 µg/mL (≈ 263 µM) and “inactive”.
As for `C=C(C)[C@@H]1CC[C@]2(C)CC[C@]3(C)[C@H](CC[C@@H]4[C@@]5(C)CC[C@H](OC(C)=O)C(C)(C)[C@@H]5CC[C@]43C)[C@@H]12` [LUPENYL ACETATE], the MIC in experiment [1] turned out to be 100 µg/mL. Further, the result in experiment [2] was inactive.
Consider `CCCCCCCCCCCCCCCC(=O)O[C@H]1CC[C@]2(C)[C@H]3CC=C4[C@H]5CC(C)(C)CC[C@]5(C)CC[C@@]4(C)[C@]3(C)CC[C@H]2C1(C)C`, for which, in experiment [1], inhibition of growth (MIC) required 100 µg/mL (≈ 150 µM). Further, the result in experiment [2] was inactive.
With `CC[C@H](/C=C/[C@@H](C)[C@H]1CC[C@H]2[C@@H]3CCC4=C[C@@H](O[C@@H]5O[C@H](CO)[C@@H](O)[C@H](O)[C@H]5O)CC[C@]4(C)[C@H]3CC[C@]12C)C(C)C`, in experiment [1], the MIC came to 100 µg/mL (≈ 174 µM). The result in experiment [2] was inactive.
`C[C@H]1[C@H](C)CC[C@]2(C(=O)O)CC[C@]3(C)C(=CC[C@@H]4[C@@]5(C)CC[C@H](O)C(C)(C)[C@@H]5CC[C@]43C)[C@H]12` [URSOLIC ACID] displayed an MIC in experiment [1] of 100 µg/mL (≈ 219 µM). Also, in experiment [2], the outcome was inactive.
`COc1c(O)cc2ccc(=O)oc2c1OC` gave an MIC in experiment [1] of 100 µg/mL (≈ 450 µM). Besides, the outcome in experiment [2] was inactive.

As a reminder, the MIC is the smallest concentration in the dilution series that meets the test's criterion for growth inhibition. The low end stands for a more susceptible organism, the high end for a less susceptible organism.
